The values below come from patent US6660846B1, “Vesicular amino acid transporter composition and method” (The Regents of the University of CA, priority 1997, dated 2003).

The target in series [1] is T1, rVGAT (RUNC-47, rat unc-47 homologue) (Rattus norvegicus, UniProt O35458).
T1 construct: expressed in transfected cells
T1 sequence (O35458 1-525): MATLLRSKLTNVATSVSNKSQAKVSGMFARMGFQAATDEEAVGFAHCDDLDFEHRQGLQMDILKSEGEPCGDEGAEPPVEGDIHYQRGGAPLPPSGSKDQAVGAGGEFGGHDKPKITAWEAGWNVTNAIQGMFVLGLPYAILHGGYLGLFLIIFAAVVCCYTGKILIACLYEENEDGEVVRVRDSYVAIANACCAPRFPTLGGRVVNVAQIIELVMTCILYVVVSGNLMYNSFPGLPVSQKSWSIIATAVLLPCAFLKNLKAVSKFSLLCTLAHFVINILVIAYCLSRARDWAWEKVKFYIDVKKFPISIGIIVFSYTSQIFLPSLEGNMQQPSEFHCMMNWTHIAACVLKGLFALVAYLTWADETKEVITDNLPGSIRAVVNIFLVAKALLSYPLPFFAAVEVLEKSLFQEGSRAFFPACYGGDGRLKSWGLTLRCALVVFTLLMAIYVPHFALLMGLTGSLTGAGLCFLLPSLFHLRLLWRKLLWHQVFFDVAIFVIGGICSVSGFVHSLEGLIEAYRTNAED
Briefly: 3H-GABA transport assay in vesicles from PC12 cells stably expressing rVGAT (RUNC-47). Type of series: biochemical. The procedure:
Stable PC12 transformants expressing high levels of the putative transport protein were isolated by screening cell clones with fluorescent-tagged antibodies generated against the rat unc-47 homologue RUNC-47. […] A population of light vesicles was then isolated from two stable transformants and purified by differential centrifugation (Example 7).
Hereafter, the terms RUNC-47 and rVGAT are used interchangeably.
These studies were carried out in the transport assay detailed in Example 8, using synaptic vesicles prepared from transfected PC-12 cells, as described above and detailed in Example 7.
Briefly, vesicles were prepared from PC12 cell clone B1 stably expressing rVGAT and from un-transfected cells.
The rat unc-47 homologue cDNA subcloned into the plasmid expression vector pcDNA3-Amp (InVitrogen; Carlsbad, Calif.) was introduced into PC12 cells by electroporation (Grote, et al., Cell 81, 581-589, 1995). […] The nuclear debris was sedimented at 100 g for 5 minutes and heavier membranes were eliminated by centrifugation at 27,000 g for 1 hour The remaining light membrane vesicles were sedimented at 65,000 g for 1 hour and resuspended in SH containing the same protease inhibitors at a final concentration of approximately 10 μg protein/μl.
Incubation was performed at 29° C. for varying intervals and the reaction was terminated by rapid filtration (Supor 200, Gelman; AnnArbor, Mich.), followed by immediate washing with 6 ml cold 0.15 M KCl. Background uptake was determined by incubation at 4° C. for 0 minutes. The bound radioactivity was measured by scintillation counting in 2.5 ml Cytoscint (ICN). […] Nigericin and valinomycin were dissolved in ethanol and added to final concentrations of 5 μM and 20 μM respectively. Transport measurements were performed in duplicate and repeated three or more times using at least two different membrane preparations.

For the next series, the target named is RUNC-47 (rVGAT) (Rattus norvegicus, UniProt O35458).
Series [2] deals with T2, vesicular monoamine transporter 1 (VMAT1) (Rattus norvegicus, UniProt Q01818).
T2 construct: transport of serotonin by endogenous VMAT1; endogenous in cells; host or cells: PC12 cells (clone B1 stably expressing rVGAT), light membrane vesicles
T2 sequence (Q01818 1-521): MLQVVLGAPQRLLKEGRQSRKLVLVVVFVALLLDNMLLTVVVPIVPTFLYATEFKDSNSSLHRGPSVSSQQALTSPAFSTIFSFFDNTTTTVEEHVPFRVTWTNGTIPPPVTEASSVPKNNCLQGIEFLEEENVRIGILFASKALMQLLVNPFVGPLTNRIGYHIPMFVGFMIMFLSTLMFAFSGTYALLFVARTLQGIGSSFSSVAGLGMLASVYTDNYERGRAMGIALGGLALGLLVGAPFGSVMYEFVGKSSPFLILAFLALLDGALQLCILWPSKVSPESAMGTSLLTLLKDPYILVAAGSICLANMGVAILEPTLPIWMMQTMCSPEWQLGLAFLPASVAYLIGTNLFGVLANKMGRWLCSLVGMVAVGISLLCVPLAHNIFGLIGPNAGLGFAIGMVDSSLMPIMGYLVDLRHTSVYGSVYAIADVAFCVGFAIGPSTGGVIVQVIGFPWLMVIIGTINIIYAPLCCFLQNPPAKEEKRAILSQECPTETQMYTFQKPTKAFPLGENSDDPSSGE
Briefly: Serotonin transport by endogenous VMAT1 in the same PC12 cell membrane preparations. Type of series: biochemical. The source says: Since nigericin inhibits VMAT1 activity on these vesicles to a greater extent (approximately 65%) than it inhibits rVGAT activity, vesicular transport of serotonin has a greater dependence on ΔpH. […] Thus, rVGAT and VMAT1 depend on both components of the electrochemical gradient but VMAT1 depends to a greater extent on ΔpH, consistent with previous results using mixed populations of synaptic vesicles.

Substrate in series [3]: NCCCC(=O)O
The series is described as follows: cells, lysate or membranes named. The note with it: other: transfected PC12 cell vesicles; uptake measured at 30 seconds; pH 7.4; 29.0 °C.

A word on the IC50: it is the concentration that gives 50% inhibition. By Km is commonly meant the substrate concentration at which the rate is half of its maximum.

Like-named read-outs stand apart in the source and are kept apart here.

Molecule `NCCCC(=O)O` [GABA, gamma-aminobutyric acid] displayed an IC50 in series [1] of 4.75 mM.
Regarding `C=CC(N)CCC(=O)O` (stereo not drawn) [gamma-vinyl-GABA], in series [1], the IC50 turned out to be 7.5 mM and the “Inhibition of rVGAT activity (3H-GABA transport), in words” value (shortened to “Inhibition of rVGAT activity”) was “as potently as unlabelled GABA”.
In the case of `N[C@@H](CCC(=O)O)C(=O)O` [glutamate], the “Inhibition of rVGAT activity” value in series [1] is listed as “does not inhibit rVGAT activity even at extremely high concentrations”. Also, the IC50 in series [1] (read-out: Inhibition of GABA Transport by Structurally Related Compounds, IC50, vesicles from rVGAT-transfected PC12 cells, about 40 μM GABA including radiolabeled GABA) was above 100 mM.
Turning to `NCC(=O)O` [glycine], in series [1], it took 27.5 mM to reach half-maximal inhibition (IC50) and the “Inhibition of rVGAT activity” value is listed as “relatively low potency”. At RUNC-47 (rVGAT), the “Uptake of 3H-glycine by RUNC-47 PC-12 vesicle preparations” value is “no significant uptake”.
In the case of `CCCC(=O)O` [n-butyric acid], in series [1], the IC50 came to 43.5 mM. Also, the “Inhibition of rVGAT activity” value in series [1] (vesicles from rVGAT-transfected PC12 cells, about 40 μM GABA) is “inhibits both rVGAT activity and GABA transport into brain synaptic vesicles”.
For the molecule `CO[C@@H]1C[C@@H](C[C@H]2CC[C@H](C)[C@H]([C@@H](C)C(=O)O)O2)O[C@]2(O[C@](C)([C@H]3CC[C@@](C)([C@@H]4O[C@@H]([C@H]5O[C@@](O)(CO)[C@H](C)C[C@@H]5C)C[C@@H]4C)O3)C[C@H]2C)[C@@H]1C` [nigericin], the “Inhibition of GABA transport in rVGAT transfected cells” value in series [1] (nigericin 5 FM, PC12 clone B1 membranes) is listed as “approximately 40%”. Besides, the “Inhibition of serotonin transport by endogenous VMAT1” value in series [2] (nigericin, membranes from transfected PC12 cells that express VGAT) is reported as “approximately 65%”.
Consider `CC(C)[C@@H]1NC(=O)[C@H](C)OC(=O)[C@@H](C(C)C)NC(=O)[C@@H](C(C)C)OC(=O)[C@H](C(C)C)NC(=O)[C@H](C)OC(=O)[C@@H](C(C)C)NC(=O)[C@@H](C(C)C)OC(=O)[C@H](C(C)C)NC(=O)[C@H](C)OC(=O)[C@@H](C(C)C)NC(=O)[C@@H](C(C)C)OC1=O` [valinomycin], for which, in series [1] (valinomycin 20 FM added to nigericin 5 FM, PC12 clone B1 membranes), the “Effect on rVGAT activity of adding valinomycin to nigericin” value was “eliminates rVGAT activity”. The “Effect on residual VMAT1 activity of adding valinomycin to nigericin” value in series [2] (valinomycin added to nigericin, same PC12 membranes) was “eliminates the residual VMAT1 activity”.

B1: rVGAT (RUNC-47, rat unc-47 homologue) (Rattus norvegicus) (protein)
chain: T1 sequence (O35458 1-525)
On to B1, for which the Km in series [3] amounted to 5 mM.
